Patent US10968192B2, “Crystalline solid forms of N-(1-((2-(dimethylamino)ethyl)amino)-2-methyl-1-oxopropan-2-yl)-4-(4-(2-methyl-5-((2S,3R,4R,5S,6R)-3,4,5-trihydroxy-6-(methylthio)tetrahydro-2H-pyran-2-yl)benzyl)phenyl)butanamide and methods of their synthesis” (Lexicon Pharmaceuticals, Inc., priority 2018, dated 2021)
Blank lines part the entries; values can stand above or below the compound they belong to.

Key:
[1] = biological target: T1, sodium glucose co-transporter type 1 (SGLT1) (Homo sapiens, UniProt P13866); conditions: qualitative statement; see U.S. Pat. No. 9,200,025, Examples 6.39, 6.40; cited from earlier work
T1 sequence (P13866 1-664): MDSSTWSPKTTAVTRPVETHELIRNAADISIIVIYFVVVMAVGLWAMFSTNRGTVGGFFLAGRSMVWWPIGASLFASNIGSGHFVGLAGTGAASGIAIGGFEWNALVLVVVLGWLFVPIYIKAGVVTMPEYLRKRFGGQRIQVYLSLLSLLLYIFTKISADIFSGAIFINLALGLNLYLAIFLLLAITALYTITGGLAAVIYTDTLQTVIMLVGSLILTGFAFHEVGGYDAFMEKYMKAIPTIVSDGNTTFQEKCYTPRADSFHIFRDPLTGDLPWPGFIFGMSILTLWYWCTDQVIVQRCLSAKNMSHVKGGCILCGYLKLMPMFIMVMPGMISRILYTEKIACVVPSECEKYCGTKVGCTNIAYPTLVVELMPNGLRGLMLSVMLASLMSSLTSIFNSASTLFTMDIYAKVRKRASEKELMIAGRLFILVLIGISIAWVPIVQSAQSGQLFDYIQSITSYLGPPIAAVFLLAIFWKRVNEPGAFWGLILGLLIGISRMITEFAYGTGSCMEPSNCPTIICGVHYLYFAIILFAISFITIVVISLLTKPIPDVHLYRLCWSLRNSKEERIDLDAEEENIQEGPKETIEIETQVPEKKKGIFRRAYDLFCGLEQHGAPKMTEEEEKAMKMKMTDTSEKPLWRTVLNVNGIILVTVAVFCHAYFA

[2] = Polymorphism studies of the L-proline co-crystal: solid-form stability upon drying; format: physicochemical
From the text: Significant further research directed at discovering useful and stable solid forms of the compound finally led to the discovery of a few crystalline forms of the free base, solvates, and co-crystals. […] Although polymorphism studies led to the identification of eleven different Raman spectroscopic classes of the co-crystal, three were dominated by amorphous material and most were unstable (i.e., lose their crystallinity or convert to other forms) upon drying. […] The suspension was filtered and the wet-cake was dried. […] (DSC peak 147° C.). The solid was used as seeds to prepare 0.7 g more Form II polymorph of the L-proline cocrystal in a similar fashion.

SMILES: CS[C@H]1O[C@@H](c2ccc(C)c(Cc3ccc(CCCC(=O)NC(C)(C)C(=O)NCCN(C)C)cc3)c2)[C@H](O)[C@@H](O)[C@@H]1O [Compound I, N-(1-((2-(dimethylamino)ethyl)-amino)-2-methyl-1-oxopropan-2-yl)-4-(4-(2-methyl-5-((2S,3R,4R,5S,6R)-3,4,5-trihydroxy-6-(methylthio)tetrahydro-2H-pyran-2-yl)benzyl)phenyl)butanamide]
inhibition of sodium glucose co-transporter type 1 (SGLT1) [1]: potent inhibitor

solid-form conversion upon drying ([2]; wet cake from ethanol, dried at 50° C.): converted to Form II upon drying
SMILES: CS[C@H]1O[C@@H](c2ccc(C)c(Cc3ccc(CCCC(=O)NC(C)(C)C(=O)NCCN(C)C)cc3)c2)[C@H](O)[C@@H](O)[C@@H]1O [Form I, N-(1-((2-(dimethylamino)ethyl)-amino)-2-methyl-1-oxopropan-2-yl)-4-(4-(2-methyl-5-((2S,3R,4R,5S,6R)-3,4,5-trihydroxy-6-(methylthio)tetrahydro-2H-pyran-2-yl)benzyl)phenyl)butanamide L-proline]

SMILES: CS[C@H]1O[C@@H](c2ccc(C)c(Cc3ccc(CCCC(=O)NC(C)(C)C(=O)NCCN(C)C)cc3)c2)[C@H](O)[C@@H](O)[C@@H]1O [Form II, N-(1-((2-(dimethylamino)ethyl)-amino)-2-methyl-1-oxopropan-2-yl)-4-(4-(2-methyl-5-((2S,3R,4R,5S,6R)-3,4,5-trihydroxy-6-(methylthio)tetrahydro-2H-pyran-2-yl)benzyl)phenyl)butanamide L-proline]
solid-form stability (retains crystallinity / does not convert to other forms upon drying) ([2]; L-proline co-crystal forms, polymorphism studies): stable enough to be useful in pharmaceutical formulations
